Test results published in patent publication EP0694535A1, “Non-peptidyl tachykinin receptor antagonists” (ELI LILLY AND COMPANY, priority 1994, dated 1996).

What was measured:
NK-1 receptor = biological target: T1, NK-1 receptor (Homo sapiens, UniProt P25103); assay: NK-1 Receptor Binding Assay (competition with labeled substance P on IM9 cells); conditions: concentration which inhibits fifty percent of the binding of substance P, 20 pM labeled substance P, 45 minutes at 4°C
T1 construct: an aliquot of IM9 cells; endogenous in cells; host or cells: IM9 cells (whole cells)
T1 sequence (P25103 whole entry): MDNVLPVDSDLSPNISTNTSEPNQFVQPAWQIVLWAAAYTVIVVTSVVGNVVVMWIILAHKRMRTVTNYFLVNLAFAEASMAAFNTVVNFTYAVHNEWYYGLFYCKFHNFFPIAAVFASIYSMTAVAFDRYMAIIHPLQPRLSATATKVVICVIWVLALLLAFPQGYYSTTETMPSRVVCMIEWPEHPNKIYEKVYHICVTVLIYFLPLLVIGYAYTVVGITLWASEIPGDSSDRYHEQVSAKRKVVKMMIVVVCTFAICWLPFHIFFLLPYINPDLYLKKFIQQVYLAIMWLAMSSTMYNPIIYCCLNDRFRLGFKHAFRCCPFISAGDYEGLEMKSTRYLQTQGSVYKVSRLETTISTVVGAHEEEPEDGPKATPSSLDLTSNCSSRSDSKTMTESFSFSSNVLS
Method in brief: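 IM9 cells (1 x 10⁶/tube in serum-supplemented RPMI) were incubated for 45 min at 4°C with 20 pM […] substance P plus rising competitor concentrations. Binding was stopped by filtration on PEI-soaked glass fiber filters. Nonspecific binding was defined with 20 nM unlabeled ligand.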

human NK-2 receptor = biological target: T2, human NK-2 receptor (Homo sapiens, UniProt P21452); assay: NK-2 Receptor Binding Assay (CHO-hNK-2R membranes, iodohistidyl-neurokinin A); conditions: for inhibition at 10 µM: inhibition of neurokinin A binding at ten micromolar, read-out: Percent Inhibition @ 10 μM
T2 construct: expressed in transfected cells; host or cells: CHO-hNK-2R cells (CHO-derived), membrane preparation
T2 sequence (P21452 1-398): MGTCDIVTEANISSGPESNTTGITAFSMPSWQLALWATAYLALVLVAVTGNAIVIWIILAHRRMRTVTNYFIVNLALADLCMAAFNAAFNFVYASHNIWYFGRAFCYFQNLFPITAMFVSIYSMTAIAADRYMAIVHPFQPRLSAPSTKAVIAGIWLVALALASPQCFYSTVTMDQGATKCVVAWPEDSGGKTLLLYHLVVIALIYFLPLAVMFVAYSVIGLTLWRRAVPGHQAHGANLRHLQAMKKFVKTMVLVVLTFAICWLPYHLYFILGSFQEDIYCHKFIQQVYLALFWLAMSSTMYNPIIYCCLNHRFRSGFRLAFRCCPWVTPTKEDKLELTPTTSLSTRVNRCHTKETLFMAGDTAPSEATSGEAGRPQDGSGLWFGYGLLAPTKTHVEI
Description: The CHO-hNK-2R cells, a CHO-derived cell line transformed with the human NK-2 receptor, expressing about 400,000 such receptors per cell, were grown in 75 cm flasks or roller bottles in minimal essential medium (alpha modification) with 10% fetal bovine serum. The gene sequence of the human NK-2 receptor is given in N.P. Gerard, et al., Journal of Biological Chemistry, 265:20455-20462 (1990).
For preparation of membranes, 30 confluent roller bottle cultures were dissociated by washing each roller bottle with 10 ml of Dulbecco's phosphate buffered saline (PBS) without calcium and magnesium, followed by addition of 10 ml of enzyme-free cell dissociation solution (PBS-based, from Specialty Media, Inc.). After an additional 15 minutes, the dissociated cells were pooled and centrifuged at 1,000 RPM for 10 minutes in a clinical centrifuge. Membranes were prepared by homogenization of the cell pellets in 300 ml 50 mM Tris buffer, pH 7.4 with a Tekmar® homogenizer for 10-15 seconds, followed by centrifugation at 12,000 RPM (20,000 x g) for 30 minutes using a Beckman JA-14® rotor. The pellets were washed once using the above procedure. and the final pellets were resuspended in 100-120 ml 50 mM Tris buffer, pH 7.4, and 4 ml aliquots stored frozen at -70 °C. The protein concentration of this preparation was 2 mg/ml.
For the receptor binding assay, one 4-ml aliquot of the CHO-hNK-2R membrane preparation was suspended in 40 ml of assay buffer containing 50 mM Tris, pH 7.4, 3 mM manganese chloride, 0.02% bovine serum albumin (BSA) and 4 µg/ml chymostatin. A 200 µl volume of the homogenate (40 µg protein) was used per sample. The radioactive ligand was [[…]]iodohistidyl-neurokinin A (New England Nuclear, NEX-252), 2200 Ci/mmol. The ligand was prepared in assay buffer at 20 nCi per 100 µl; the final concentration in the assay was 20 pM. Non-specific binding was determined using 1 µM eledoisin. Ten concentrations of eledoisin from 0.1 to 1000 nM were used for a standard concentration-response curve.
All samples and standards were added to the incubation in 10 µl dimethylsulfoxide (DMSO) for screening (single dose) or in 5 µl DMSO for IC₅₀ determinations. The order of additions for incubation was 190 or 195 µl assay buffer, 200 µl homogenate, 10 or 5 µl sample in DMSO, 100 µl radioactive ligand. The samples were incubated 1 hr at room temperature and then filtered on a cell harvester through filters which had been presoaked for two hours in 50 mM Tris buffer, pH 7.7, containing 0.5% BSA. The filter was washed 3 times with approximately 3 ml of cold 50 mM Tris buffer, pH 7.7. The filter circles were then punched into 12 x 75 mm polystyrene tubes and counted in a gamma counter.
Table II, infra, provides a representative sample of the effectiveness as NK-2 receptor antagonists of many of the compounds of Formula I. The first column provides the Example number of the compound tested. The second column provides either the percent inhibition of neurokinin A binding when the compound is present in a ten micromolar concentration or the amount of compound (in micromolar amounts) necessary to inhibit fifty percent of the binding of neurokinin A. Those values which represent IC₅₀ values are designated by parentheses.

Structure (SMILES) | IC50 (NK-1 receptor) | IC50 (human NK-2 receptor; values in parentheses, amount necessary to inhibit fifty percent of the binding of neurokinin A) | inhibition at 10 µM (human NK-2 receptor)
COc1cc(-c2nc3ccc(OCCN4CCC(N5CCCCC5)CC4)cc3n2Cc2ccccc2)cc(OC)c1OC [Example 77, 1-benzyl-2-(3,4,5-trimethoxyphenyl)-6-[2-[4-(piperidin-1-yl)piperdin-1-yl]ethoxy]benzimidazole] | 0.123 µM | 6.25 µM | –
Cc1cccc(-c2nc3ccc(O)cc3n2Cc2ccccc2)c1 [Example 84, 1-benzyl-2-(3-methylphenyl)-6-hydroxybenzimidazole] | 0.59 µM | – | 37.8%
Cc1cccc(-c2nc3ccc(OCCN4CCCCC4)cc3n2Cc2ccccc2)c1 [Example 85, 1-benzyl-2-(3-methylphenyl)-6-[2-(1-piperidinyl)ethoxy]benzimidazole] | 0.753 µM | – | 73.1%
